Assay results taken from ChEMBL document CHEMBL3864167, “Structure-Activity Relationship, Drug Metabolism and Pharmacokinetics Properties Optimization, and in Vivo Studies of New Brain Penetrant Triple T-Type Calcium Channel Blockers” (J Med Chem, 2016).

Experiments:
[1] = molecular target: Voltage-dependent T-type calcium channel subunit alpha-1G (Homo sapiens, UniProt O43497); assay: Channel blocking activity at recombinant human CaV 3.1 channel expressed in HEK293 cells assessed as inhibition of Ca2+ flux preincubated for 3 mins followed by CaCl2 addition by fluo-4 dye-based FLIPR assay; assay type: cell-based
Sequence of Voltage-dependent T-type calcium channel subunit alpha-1G (O43497 whole entry): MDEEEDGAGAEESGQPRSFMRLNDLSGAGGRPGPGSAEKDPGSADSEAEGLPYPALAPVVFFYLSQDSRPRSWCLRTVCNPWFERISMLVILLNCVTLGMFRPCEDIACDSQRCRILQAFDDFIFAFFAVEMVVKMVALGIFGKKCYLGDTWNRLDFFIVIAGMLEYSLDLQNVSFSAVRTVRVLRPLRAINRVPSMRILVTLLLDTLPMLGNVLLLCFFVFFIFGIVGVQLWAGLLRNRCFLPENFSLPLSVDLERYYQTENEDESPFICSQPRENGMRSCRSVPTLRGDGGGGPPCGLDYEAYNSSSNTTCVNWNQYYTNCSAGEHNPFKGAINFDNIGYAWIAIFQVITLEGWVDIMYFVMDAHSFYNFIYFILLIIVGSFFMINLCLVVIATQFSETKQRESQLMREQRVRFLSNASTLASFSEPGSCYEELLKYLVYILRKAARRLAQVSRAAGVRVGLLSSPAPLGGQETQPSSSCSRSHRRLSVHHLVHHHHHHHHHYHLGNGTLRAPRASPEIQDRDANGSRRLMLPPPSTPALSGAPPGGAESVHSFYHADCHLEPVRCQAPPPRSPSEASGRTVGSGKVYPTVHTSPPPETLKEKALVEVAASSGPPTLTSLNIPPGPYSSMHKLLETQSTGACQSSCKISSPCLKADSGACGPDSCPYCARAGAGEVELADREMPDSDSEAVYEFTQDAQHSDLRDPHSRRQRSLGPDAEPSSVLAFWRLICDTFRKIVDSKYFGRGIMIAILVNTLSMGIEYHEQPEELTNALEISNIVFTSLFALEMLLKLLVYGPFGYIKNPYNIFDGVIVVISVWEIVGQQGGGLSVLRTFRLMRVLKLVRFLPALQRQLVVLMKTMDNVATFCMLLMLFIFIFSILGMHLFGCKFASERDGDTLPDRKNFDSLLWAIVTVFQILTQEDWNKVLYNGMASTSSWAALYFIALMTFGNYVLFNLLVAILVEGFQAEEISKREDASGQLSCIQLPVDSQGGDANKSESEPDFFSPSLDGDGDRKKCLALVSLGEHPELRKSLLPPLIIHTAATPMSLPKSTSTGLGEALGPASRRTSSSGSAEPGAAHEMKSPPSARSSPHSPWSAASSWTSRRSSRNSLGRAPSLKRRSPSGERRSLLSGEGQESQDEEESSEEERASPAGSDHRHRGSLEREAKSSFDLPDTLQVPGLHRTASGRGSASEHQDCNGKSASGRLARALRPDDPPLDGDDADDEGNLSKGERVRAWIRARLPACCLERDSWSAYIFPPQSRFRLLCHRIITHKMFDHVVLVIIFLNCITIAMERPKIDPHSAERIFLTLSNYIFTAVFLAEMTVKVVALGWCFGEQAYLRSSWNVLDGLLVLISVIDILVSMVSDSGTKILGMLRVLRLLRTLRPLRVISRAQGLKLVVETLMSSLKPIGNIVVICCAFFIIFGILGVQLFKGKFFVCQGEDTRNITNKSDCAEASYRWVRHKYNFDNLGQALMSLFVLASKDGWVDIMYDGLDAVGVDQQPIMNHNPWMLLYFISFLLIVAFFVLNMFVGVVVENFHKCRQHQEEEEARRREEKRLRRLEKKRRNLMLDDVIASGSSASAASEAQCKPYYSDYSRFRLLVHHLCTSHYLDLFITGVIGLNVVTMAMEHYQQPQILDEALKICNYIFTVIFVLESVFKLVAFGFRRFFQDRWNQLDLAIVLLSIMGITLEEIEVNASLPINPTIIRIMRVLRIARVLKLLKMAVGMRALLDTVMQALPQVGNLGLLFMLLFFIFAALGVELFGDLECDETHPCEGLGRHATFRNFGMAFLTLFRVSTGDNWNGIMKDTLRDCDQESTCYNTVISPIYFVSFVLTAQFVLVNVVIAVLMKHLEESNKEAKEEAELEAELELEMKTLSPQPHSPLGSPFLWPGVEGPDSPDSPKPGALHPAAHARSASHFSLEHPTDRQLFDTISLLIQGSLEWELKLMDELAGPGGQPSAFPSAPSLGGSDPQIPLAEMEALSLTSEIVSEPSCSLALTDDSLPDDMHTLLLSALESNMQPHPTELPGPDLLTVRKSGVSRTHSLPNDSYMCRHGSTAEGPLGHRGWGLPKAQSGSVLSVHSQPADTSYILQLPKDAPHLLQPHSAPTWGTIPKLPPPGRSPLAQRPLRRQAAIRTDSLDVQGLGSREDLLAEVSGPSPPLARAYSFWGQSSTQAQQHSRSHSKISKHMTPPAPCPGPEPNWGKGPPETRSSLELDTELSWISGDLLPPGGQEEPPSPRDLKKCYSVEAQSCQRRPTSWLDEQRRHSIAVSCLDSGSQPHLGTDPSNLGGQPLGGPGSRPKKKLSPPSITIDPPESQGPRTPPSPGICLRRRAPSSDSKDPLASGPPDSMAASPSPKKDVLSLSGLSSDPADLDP

[2] = molecular target: Voltage-dependent T-type calcium channel subunit alpha-1H (Homo sapiens, UniProt O95180); assay: Channel blocking activity at recombinant human CaV 3.2 channel expressed in HEK293 cells assessed as inhibition of Ca2+ flux preincubated for 3 mins followed by CaCl2 addition by fluo-4 dye-based FLIPR assay; assay type: cell-based
Sequence of Voltage-dependent T-type calcium channel subunit alpha-1H (O95180 whole entry): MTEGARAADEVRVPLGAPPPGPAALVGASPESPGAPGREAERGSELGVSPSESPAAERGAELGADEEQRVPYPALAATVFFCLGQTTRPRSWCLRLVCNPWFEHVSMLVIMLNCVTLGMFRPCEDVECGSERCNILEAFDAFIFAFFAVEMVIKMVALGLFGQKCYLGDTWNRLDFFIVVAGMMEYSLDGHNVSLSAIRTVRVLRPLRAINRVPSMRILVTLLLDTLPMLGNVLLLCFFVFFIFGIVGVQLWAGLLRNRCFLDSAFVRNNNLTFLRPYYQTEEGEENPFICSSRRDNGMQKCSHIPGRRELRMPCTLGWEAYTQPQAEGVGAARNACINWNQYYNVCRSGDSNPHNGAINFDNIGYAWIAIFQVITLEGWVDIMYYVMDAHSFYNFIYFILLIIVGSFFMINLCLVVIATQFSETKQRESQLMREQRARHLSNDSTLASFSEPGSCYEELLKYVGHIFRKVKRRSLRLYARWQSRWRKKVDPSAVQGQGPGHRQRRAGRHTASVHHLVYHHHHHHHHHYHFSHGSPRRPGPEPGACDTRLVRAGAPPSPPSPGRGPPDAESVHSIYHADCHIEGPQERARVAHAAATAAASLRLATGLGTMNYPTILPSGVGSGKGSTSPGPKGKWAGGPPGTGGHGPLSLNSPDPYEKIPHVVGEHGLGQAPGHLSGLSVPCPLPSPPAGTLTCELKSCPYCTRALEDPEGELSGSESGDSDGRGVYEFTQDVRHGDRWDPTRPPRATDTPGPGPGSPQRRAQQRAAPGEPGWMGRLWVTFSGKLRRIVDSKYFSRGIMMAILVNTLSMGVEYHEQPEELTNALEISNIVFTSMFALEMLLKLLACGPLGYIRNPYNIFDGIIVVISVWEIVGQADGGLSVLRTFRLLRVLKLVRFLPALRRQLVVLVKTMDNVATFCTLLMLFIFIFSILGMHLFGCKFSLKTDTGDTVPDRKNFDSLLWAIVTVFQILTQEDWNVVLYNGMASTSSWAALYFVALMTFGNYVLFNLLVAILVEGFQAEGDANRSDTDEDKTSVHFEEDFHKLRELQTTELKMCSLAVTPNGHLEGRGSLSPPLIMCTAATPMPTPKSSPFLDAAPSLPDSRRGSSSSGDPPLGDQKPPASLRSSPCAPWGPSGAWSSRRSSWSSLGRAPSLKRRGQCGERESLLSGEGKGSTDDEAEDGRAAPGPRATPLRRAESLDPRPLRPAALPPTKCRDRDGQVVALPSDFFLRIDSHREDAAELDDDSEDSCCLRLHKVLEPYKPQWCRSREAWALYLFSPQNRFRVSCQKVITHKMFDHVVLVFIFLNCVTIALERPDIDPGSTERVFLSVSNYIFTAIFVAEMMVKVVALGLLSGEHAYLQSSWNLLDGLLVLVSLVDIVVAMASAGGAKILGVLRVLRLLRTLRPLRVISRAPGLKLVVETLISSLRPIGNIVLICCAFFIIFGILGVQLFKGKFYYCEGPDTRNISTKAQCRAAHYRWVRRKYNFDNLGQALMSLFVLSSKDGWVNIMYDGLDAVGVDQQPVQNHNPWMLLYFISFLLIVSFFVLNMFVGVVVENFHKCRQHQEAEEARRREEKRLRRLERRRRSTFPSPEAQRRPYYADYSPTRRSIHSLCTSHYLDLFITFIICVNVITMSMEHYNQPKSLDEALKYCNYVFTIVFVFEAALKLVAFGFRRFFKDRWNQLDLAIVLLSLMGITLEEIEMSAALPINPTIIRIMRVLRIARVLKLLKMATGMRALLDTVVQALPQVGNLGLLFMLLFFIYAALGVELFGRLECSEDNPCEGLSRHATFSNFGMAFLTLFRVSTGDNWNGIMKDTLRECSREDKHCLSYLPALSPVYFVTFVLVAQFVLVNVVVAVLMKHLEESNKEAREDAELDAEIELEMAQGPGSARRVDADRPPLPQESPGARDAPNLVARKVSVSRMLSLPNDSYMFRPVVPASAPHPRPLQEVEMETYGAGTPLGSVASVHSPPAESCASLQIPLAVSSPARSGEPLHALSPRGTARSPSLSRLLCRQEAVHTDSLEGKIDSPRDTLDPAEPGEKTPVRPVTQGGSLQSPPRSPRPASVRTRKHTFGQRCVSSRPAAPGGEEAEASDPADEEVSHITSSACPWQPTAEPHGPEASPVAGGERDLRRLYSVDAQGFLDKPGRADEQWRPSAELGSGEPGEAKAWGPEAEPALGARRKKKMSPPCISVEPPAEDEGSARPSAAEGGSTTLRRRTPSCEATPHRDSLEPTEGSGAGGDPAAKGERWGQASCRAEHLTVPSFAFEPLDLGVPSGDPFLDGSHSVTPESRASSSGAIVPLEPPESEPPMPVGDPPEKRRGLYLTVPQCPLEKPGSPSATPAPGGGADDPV

[3] = molecular target: Voltage-dependent T-type calcium channel subunit alpha-1I (Homo sapiens, UniProt Q9P0X4); assay: Channel blocking activity at recombinant human CaV 3.3 channel expressed in HEK293 cells assessed as inhibition of Ca2+ flux preincubated for 3 mins followed by CaCl2 addition by fluo-4 dye-based FLIPR assay; assay type: cell-based
[4] = Intrinsic clearance in human liver microsomes at 1 uM up to 15 mins in presence of NADPH by LC-MS-MS analysis; assay type: ADME; conditions: read-out: CLH

SMILES	IC50 [1] [nM]	IC50 [2] [nM]	IC50 [3] [nM]	microsomal CLint at 1 µM [4] [µL/min/mg]
C[C@@H]1CN(Cc2ccccc2)c2ccccc2[C@H](C)N1C(=O)NCc1ccccc1	5	17	2	
C[C@@H]1c2ccccc2N(Cc2ccccc2)C[C@H](C)N1C(=O)NCc1ccccc1	262	358	641	
C[C@@H]1c2ccncc2N(Cc2ccccc2)C[C@H](C)N1C(=O)NCc1ccccc1	> 10000	> 11000	> 10000	
O=C(NCc1ccccc1)N1CCN(Cc2ccccc2)c2ccccc2C1	305	392	214	> 1250
C[C@H]1c2ccccc2N(Cc2ccccc2)CCN1C(=O)NCc1ccccc1 (racemic)	193	241	164	> 1250
C[C@@H]1CN(Cc2cccc(F)c2)c2ccccc2[C@H](C)N1C(=O)Nc1cccnc1 (racemic)	8	14	5	> 1250
C[C@@H]1CN(Cc2ccc(F)cc2)c2ccccc2[C@H](C)N1C(=O)Nc1cccnc1 (racemic)	25	31	7	> 1250
C[C@@H]1C(=O)N(Cc2ccccc2)c2ccccc2[C@H](C)N1C(=O)NCc1ccccc1 (racemic)	304	682	259	> 1250
COc1cc2c(cc1F)N(Cc1ccccc1)C[C@@H](C)N(C(=O)Nc1cccnc1)[C@H]2C (racemic)	370	414	73	
Cc1ccc2c(c1)N(Cc1ccccc1)C[C@@H](C)N(C(=O)Nc1cccnc1)[C@H]2C (racemic)	227	231	74	
C[C@@H]1CN(C(=O)NCc2ccccc2)[C@@H](C)c2ccccc2N1Cc1ccccc1 (racemic)	211	198	326	
C[C@@H]1CN(Cc2cccc(F)c2F)c2ccccc2[C@H](C)N1C(=O)NCc1ccccc1 (racemic)	5	9	4	
C[C@@H]1CN(CC2CCCC2)c2ccccc2[C@H](C)N1C(=O)Nc1cccnc1 (racemic)	23	62	14	1150
COc1cccc2c1[C@H](C)N(C(=O)Nc1cccnc1)[C@H](C)CN2Cc1ccccc1 (racemic)	188	305	130	
C[C@@H]1CN(Cc2cnc(C(F)(F)F)s2)c2ccccc2[C@H](C)N1C(=O)NCc1ccccc1 (racemic)	13	15	6	> 1250
C[C@@H]1CN(Cc2ccncc2)c2ccccc2[C@H](C)N1C(=O)NCc1ccccc1 (racemic)	> 7260	> 8580	1710	
C[C@@H]1CN(Cc2ccccc2)c2ccccc2[C@H](C)N1S(=O)(=O)c1cn(C)cn1 (racemic)	576	1490	210	
C[C@@H]1CN(Cc2ccccc2F)c2ccccc2[C@H](C)N1C(=O)Nc1cccnc1 (racemic)	4	11	5	1200
C[C@@H]1CN(Cc2ccccc2)c2cncnc2[C@H](C)N1C(=O)NCc1ccccc1 (racemic)	> 8500	> 6400	1000	
COc1cccc2c1N(Cc1ccccc1)C[C@@H](C)N(C(=O)Nc1cccnc1)[C@H]2C (racemic)	> 5300	> 6500	> 9000	
C[C@@H]1CN(C(=O)c2ccccc2)c2ccccc2[C@H](C)N1C(=O)NCc1ccccc1 (racemic)	6070	> 11500	> 10000	
C[C@@H]1CN(Cc2ccc(C(F)(F)F)o2)c2ccccc2[C@H](C)N1C(=O)Nc1cccnc1 (racemic)	4	14	9	> 1250
COc1ccc(CNC(=O)N2[C@H](C)CN(Cc3ccccc3)c3ccccc3[C@@H]2C)cc1 (racemic)	8	14	6	> 1250
C[C@@H]1CN(Cc2ccccc2)c2ccccc2[C@H](C)N1C(=O)OCc1ccccc1 (racemic)	420	841	473	
C[C@@H]1CN(CCOC(C)(C)C)c2ccccc2[C@H](C)N1C(=O)NCc1ccccc1 (racemic)	35	44	12	
COc1ccc(CN2C[C@@H](C)N(C(=O)NCc3ccccc3)[C@@H](C)c3ccccc32)cn1 (racemic)	45	33	10	> 1250

SMILES	IC50 [1] [nM]	IC50 [2] [nM]	IC50 [3] [nM]	microsomal CLint at 1 µM [4] [µL/min/mg]
C[C@@H]1CN(Cc2ccccc2)c2ccccc2[C@H](C)N1C(=O)CCc1cccnc1 (racemic)	31	38	10	> 1250
C[C@@H]1CN(Cc2cccc(C(F)(F)F)n2)c2ccccc2[C@H](C)N1C(=O)NCc1ccccc1 (racemic)	25	42	14	> 1250
CCN1C[C@@H](C)N(C(=O)NCc2ccccc2)[C@@H](C)c2ccccc21 (racemic)	754	922	139	> 1250
C[C@H]1c2ccccc2N(Cc2ccccc2)[C@@H](C)CN1C(=O)NCc1ccccc1 (racemic)	293	464	1000	
C[C@@H]1CN(Cc2cccnc2)c2ccccc2[C@H](C)N1C(=O)NCc1ccccc1 (racemic)	476	500	95	
C[C@@H]1CN(Cc2ccccc2)c2ccccc2[C@H](C)N1C(=O)N(C)Cc1ccccc1 (racemic)	457	835	892	
C[C@@H]1CN(Cc2ccccc2)c2ccncc2[C@H](C)N1C(=O)NCc1ccccc1 (racemic)	6280	> 11000	> 8740	
C[C@@H]1CN(Cc2ccccc2)c2c(cnn2C)[C@H](C)N1C(=O)NCc1ccccc1 (racemic)	> 9400	> 7300	> 10000	
C[C@@H]1CN(S(=O)(=O)c2ccccc2)c2ccccc2[C@H](C)N1C(=O)Nc1cccnc1 (racemic)	> 10000	4690	1810	
C[C@@H]1CN(Cc2ccccc2)c2ccccc2CN1C(=O)NCc1ccccc1 (racemic)	102	141	26	> 1250
C[C@@H]1CN(Cc2ccccc2)c2nnccc2[C@H](C)N1C(=O)NCc1ccccc1 (racemic)	1140	695	206	
C[C@@H]1CN(Cc2ccccc2)c2cccnc2[C@H](C)N1C(=O)NCc1ccccc1 (racemic)	597	212	91	
C[C@@H]1CN(Cc2ccc(F)c(F)c2)c2ccccc2[C@H](C)N1C(=O)Nc1cccnc1 (racemic)	13	18	6	> 1250
C[C@@H]1CN(Cc2ccc(C(F)(F)F)o2)c2ccccc2[C@H](C)N1C(=O)NCc1ccccc1 (racemic)	7	13	6	> 1250
C[C@@H]1CN(Cc2ccccc2)c2ccccc2C(=O)N1CCc1ccccc1 (racemic)	676	618	1590	> 1250
C[C@@H]1CN(Cc2cnc(C(F)(F)F)s2)c2ccccc2[C@H](C)N1C(=O)Nc1cccnc1 (racemic)	33	42	33	> 1250
C[C@@H]1CN(Cc2ccccc2)c2cc(Br)ccc2[C@H](C)N1C(=O)Nc1cccnc1 (racemic)	286	428	137	
C[C@@H]1CN(Cc2ccccc2)c2ccccc2[C@H](C)N1CC1CCOCC1 (racemic)	6110	7410	> 10000	
C[C@@H]1CN(Cc2ccccn2)c2ccccc2[C@H](C)N1C(=O)NCc1ccccc1 (racemic)	605	479	97	
C[C@@H]1CN(Cc2cccnc2F)c2ccccc2[C@H](C)N1C(=O)NCc1ccccc1 (racemic)	53	49	10	> 1250
C[C@H]1CN(Cc2ccccc2)c2ccccc2[C@H](C)N1C(=O)NCc1ccccc1 (racemic)	279	340	95	> 1250
C[C@@H]1CN(Cc2ccccc2)c2ccccc2[C@H](C)N1C(=O)C1CCOCC1 (racemic)	24	47	8	1160
C[C@@H]1CN(Cc2ccccc2)c2cc(S(C)(=O)=O)ccc2[C@H](C)N1C(=O)Nc1cccnc1 (racemic)	> 10000	> 8000	> 10000	
C[C@@H]1CN(Cc2ccccc2)c2ccccc2[C@H](C)N1C(=O)CN1CCOCC1 (racemic)	36	51	7	> 1250
CC(C)CCN1C[C@@H](C)N(C(=O)Nc2cccnc2)[C@@H](C)c2ccccc21 (racemic)	23	91	12	> 1250
